Assay results reported in patent US8637496B2, “Compounds having a monogalactosyldiacylglycerol synthase inhibitory activity as herbicide or algaecide, herbicide and algaecide compositions” (Commissariat a l'Energie Atomique, priority 2007, dated 2014).
Structures can show the parent of a compound that is named as a salt.

Biological target: T1, MGDG synthase in isolated spinach chloroplast envelope membranes (Spinacia oleracea, UniProt Q9SM44)
T1 construct: envelope membranes purified from the lysate by sucrose centrifugation gradient; from tissue; host or cells: envelope membranes of chloroplasts from spinach leaves
T1 sequence (Q9SM44 99-522): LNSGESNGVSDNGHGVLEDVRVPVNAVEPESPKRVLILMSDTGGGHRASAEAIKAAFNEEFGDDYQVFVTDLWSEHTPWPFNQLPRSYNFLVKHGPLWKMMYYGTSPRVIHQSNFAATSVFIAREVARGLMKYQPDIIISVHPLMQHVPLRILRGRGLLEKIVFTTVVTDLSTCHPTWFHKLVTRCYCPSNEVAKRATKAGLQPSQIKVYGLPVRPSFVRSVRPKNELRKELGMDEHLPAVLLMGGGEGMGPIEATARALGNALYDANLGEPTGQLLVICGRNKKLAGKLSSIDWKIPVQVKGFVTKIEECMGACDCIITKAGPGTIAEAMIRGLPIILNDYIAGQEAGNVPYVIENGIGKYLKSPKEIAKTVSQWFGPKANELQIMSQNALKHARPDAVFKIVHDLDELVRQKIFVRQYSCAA
Test: MGDG synthase activity in envelope membrane fractions isolated from spinach chloroplasts
Format: biochemical
Details: not given
From the text: All the operations have been carried out as described in the article by Maréchal, E. et al., J. Biol. Chem., 1995, 270, 5714-5722. Crude chloroplasts were obtained from 3-4 kg of spinach leaves and purified by isopycnic centrifugation using Percoll gradients. Purified intact chloroplasts have then been lysed in hypotonic medium and envelope membranes purified from the lysate by sucrose centrifugation gradient as described in the article by Douce, R. and Joyard, J., (1982) in Methods in Chloroplast Molecular Biology (Edelman, M., Hallick R and Chua N H eds), pp 239-256, Elsevier Science Publishers B.V. Amsterdam.
MGDG synthase activity was assayed as described in the article by Maréchal et al. (1995).

SMILES	IC50
C[C@@H](COC(=O)N1CCC(n2c(=O)[nH]c3ccccc32)CC1)N(Cc1ccccc1)Cc1cc2ccccc2c2ccccc12 [Compound 61, (S)-2-(benzyl(phenanthren-9-ylmethyl)amino)propyl 4-(2-oxo-2,3-dihydro-1H-benzo[d]imidazol-1-yl)piperidine-1-carboxylate hydrochloride]	25 µM

Same assay, conditions: Table 1, obtained in the same manner as FIG. 4; read-out: Inhibitory effect on MGDG synthesis in isolated spinach chloroplast envelope membranes

SMILES	IC50
COc1ccc(CN(CCCOC(=O)N2CCC(n3c(=O)[nH]c4ccccc43)CC2)Cc2ccccc2)cc1 [Compound 42, 3-(benzyl(4-methoxybenzyl)amino)propyl 4-(2-oxo-2,3-dihydro-1H-benzo[d]imidazol-1-yl)piperidine-1-carboxylate hydrochloride]	50 µM
O=C(OCCN(Cc1ccccc1)Cc1ccncc1)N1CCC(n2c(=O)[nH]c3ccccc32)CC1 [Compound 44, 2-(benzyl(pyridin-4-ylmethyl)amino)ethyl 4-(2-oxo-2,3-dihydro-1H-benzo[d]imidazol-1-yl)piperidine-1-carboxylate]	45 µM
C[C@@H](COC(=O)N1CCC(n2c(=O)[nH]c3ccccc32)CC1)N(Cc1ccccc1)Cc1ccc(F)cc1 [Compound 51, (S)-2-(benzyl(4-fluorobenzyl)amino)propyl 4-(2-oxo-2,3-dihydro-1H-benzo[d]imidazol-1-yl)piperidine-1-carboxylate hydrochloride]	40 µM
C[C@@H](COC(=O)N1CCC(n2c(=O)[nH]c3ccccc32)CC1)N(CCCc1ccccc1)Cc1ccccc1 [Compound 52, (S)-2-(benzyl(3-phenylpropyl)amino)propyl 4-(2-oxo-2,3-dihydro-1H-benzo[d]imidazol-1-yl)piperidine-1-carboxylate hydrochloride]	60 µM
C[C@@H](COC(=O)N1CCC(n2c(=O)[nH]c3ccccc32)CC1)N(Cc1ccccc1)Cc1ccnc2ccccc12 [Compound 53, (S)-2-(benzyl(quinolin-4-ylmethyl)amino)propyl 4-(2-oxo-2,3-dihydro-1H-benzo[d]imidazol-1-yl)piperidine-1-carboxylate hydrochloride]	60 µM
COc1cccc(CN(Cc2ccccc2)[C@@H](C)COC(=O)N2CCC(n3c(=O)[nH]c4ccccc43)CC2)c1 [Compound 54, (S)-2-(benzyl(3-methoxybenzyl)amino)propyl 4-(2-oxo-2,3-dihydro-1H-benzo[d]imidazol-1-yl)piperidine-1-carboxylate hydrochloride]	25 µM
C[C@@H](COC(=O)N1CCC(n2c(=O)[nH]c3ccccc32)CC1)N(Cc1ccccc1)Cc1cccc(Oc2ccccc2)c1 [Compound 55, (S)-2-(benzyl(3-phenoxybenzyl)amino)propyl 4-(2-oxo-2,3-dihydro-1H-benzo[d]imidazol-1-yl)piperidine-1-carboxylate hydrochloride]	40 µM
O=C(OCCN(Cc1ccccc1)Cc1ccnc2ccccc12)N1CCC(n2c(=O)[nH]c3ccccc32)CC1 [Compound 57, 2-(benzyl(quinolin-4-ylmethyl)amino)ethyl 4-(2-oxo-2,3-dihydro-1H-benzo[d]imidazol-1-yl)piperidine-1-carboxylate hydrochloride]	75 µM
O=C(OCCCN(Cc1ccccc1)Cc1cccnc1)N1CCC(n2c(=O)[nH]c3ccccc32)CC1 [Compound 58, 3-(benzyl(pyridin-3-ylmethyl)amino)propyl 4-(2-oxo-2,3-dihydro-1H-benzo[d]imidazol-1-yl)piperidine-1-carboxylate hydrochloride]	17 µM
O=C(OCCCN(Cc1ccccc1)Cc1ccccn1)N1CCC(n2c(=O)[nH]c3ccccc32)CC1 [Compound 59, 3-(benzyl(pyridin-2-ylmethyl)amino)propyl 4-(2-oxo-2,3-dihydro-1H-benzo[d]imidazol-1-yl)piperidine-1-carboxylate hydrochloride]	15 µM
C[C@@H](COC(=O)N1CCC(n2c(=O)[nH]c3ccccc32)CC1)N(Cc1ccccc1)Cc1cccc2ccccc12 [Compound 62, (S)-2-(benzyl(naphthalen-1-ylmethyl)amino)propyl 4-(2-oxo-2,3-dihydro-1H-benzo[d]imidazol-1-yl)piperidine-1-carboxylate hydrochloride]	25 µM
C[C@@H](COC(=O)N1CCC(n2c(=O)[nH]c3ccccc32)CC1)N(Cc1ccccc1)Cc1cccs1 [Compound 63, (S)-2-(benzyl(thiophen-2-ylmethyl)amino)propyl 4-(2-oxo-2,3-dihydro-1H-benzo[d]imidazol-1-yl)piperidine-1-carboxylate hydrochloride]	30 µM
C[C@@H](COC(=O)N1CCC(n2c(=O)[nH]c3ccccc32)CC1)N(Cc1ccccc1)Cc1ccccn1 [Compound 64, (S)-2-(benzyl(pyridin-2-ylmethyl)amino)propyl 4-(2-oxo-2,3-dihydro-1H-benzo[d]imidazol-1-yl)piperidine-1-carboxylate hydrochloride]	35 µM
CC(C)(C)OC(=O)N(CCOC(=O)N1CCC(n2c(=O)[nH]c3ccccc32)CC1)Cc1ccccc1 [Compound 65, 2-(benzyl(tert-butoxycarbonyl)amino)ethyl 4-(2-oxo-2,3-dihydro-1H-benzo[d]imidazol-1-yl)piperidine-1-carboxylate]	12 µM
O=C(OCCCN(Cc1ccccc1)Cc1cccs1)N1CCC(n2c(=O)[nH]c3ccccc32)CC1 [Compound 66, 3-(benzyl(thiophen-2-ylmethyl)amino)propyl 4-(2-oxo-2,3-dihydro-1H-benzo[d]imidazol-1-yl)piperidine-1-carboxylate hydrochloride]	50 µM

The next lines start with the values.

IC50	SMILES
15 µM	O=C(OCCN(CCCc1ccccc1)Cc1ccccc1)N1CCC(n2c(=O)[nH]c3ccccc32)CC1 [Compound 46, 2-(benzyl(3-phenylpropyl)amino)ethyl 4-(2-oxo-2,3-dihydro-1H-benzo[d]imidazol-1-yl)piperidine-1-carboxylate hydrochloride]
15 µM	COc1ccc(CN(CCOC(=O)N2CCC(n3c(=O)[nH]c4ccccc43)CC2)Cc2ccccc2)cc1 [Compound 47, 2-(benzyl(4-methoxybenzyl)amino)ethyl 4-(2-oxo-2,3-dihydro-1H-benzo[d]imidazol-1-yl)piperidine-1-carboxylate hydrochloride]
15 µM	COc1cccc(CN(CCOC(=O)N2CCC(n3c(=O)[nH]c4ccccc43)CC2)Cc2ccccc2)c1 [Compound 48, 2-(benzyl(3-methoxybenzyl)amino)ethyl 4-(2-oxo-2,3-dihydro-1H-benzo[d]imidazol-1-yl)piperidine-1-carboxylate hydrochloride]
15 µM	C[C@@H](COC(=O)N1CCC(n2c(=O)[nH]c3ccccc32)CC1)N(Cc1ccccc1)Cc1cccc(Cl)c1 [Compound 56, (S)-2-(benzyl(3-chlorobenzyl)amino)propyl 4-(2-oxo-2,3-dihydro-1H-benzo[d]imidazol-1-yl)piperidine-1-carboxylate hydrochloride]
12 µM	C[C@@H](COC(=O)N1CCC(n2c(=O)[nH]c3ccccc32)CC1)N(Cc1ccccc1)Cc1cccc(OCc2ccccc2)c1 [Compound 60, (S)-2-(benzyl(3-(benzyloxy)benzyl)amino)propyl 4-(2-oxo-2,3-dihydro-1H-benzo[d]imidazol-1-yl)piperidine-1-carboxylate hydrochloride]
12 µM	O=C(OCCCN(Cc1ccccc1)Cc1ccc(F)cc1)N1CCC(n2c(=O)[nH]c3ccccc32)CC1 [Compound 67, 3-(benzyl(4-fluorobenzyl)amino)propyl 4-(2-oxo-2,3-dihydro-1H-benzo[d]imidazol-1-yl)piperidine-1-carboxylate hydrochloride]
8 µM	O=C(OCCN(Cc1ccccc1)Cc1cccc(Oc2ccccc2)c1)N1CCC(n2c(=O)[nH]c3ccccc32)CC1 [Compound 49, 2-(benzyl(3-phenoxybenzyl)amino)ethyl 4-(2-oxo-2,3-dihydro-1H-benzo[d]imidazol-1-yl)piperidine-1-carboxylate hydrochloride]
8 µM	O=C(OCCN(Cc1ccccc1)Cc1cccc(Cl)c1)N1CCC(n2c(=O)[nH]c3ccccc32)CC1 [Compound 50, 2-(benzyl(3-chlorobenzyl)amino)ethyl 4-(2-oxo-2,3-dihydro-1H-benzo[d]imidazol-1-yl)piperidine-1-carboxylate hydrochloride]
6 µM	O=C(OC[C@@H](Cc1ccccc1)N(Cc1ccccc1)Cc1ccccc1)N1CCC(n2c(=O)[nH]c3ccccc32)CC1 [Compound 43, (R)-2-(dibenzylamino)-3-phenylpropyl 4-(1,2-dihydro-2-oxobenzo[d]imidazol-3-yl)piperidine-1-carboxylate]
5 µM	O=C(OCCN(Cc1ccccc1)Cc1ccc(F)cc1)N1CCC(n2c(=O)[nH]c3ccccc32)CC1 [Compound 45, 2-(benzyl(4-fluorobenzyl)amino)ethyl 4-(2-oxo-2,3-dihydro-1H-benzo[d]imidazol-1-yl)piperidine-1-carboxylate hydrochloride]
